This note sets out measurements from PubChem BioAssay (NCI).

What all share (assay): DTP human tumour cell line panel, 48 h
Assay [1] has as its system A549 NSCLC.
The subject of assay [2] is EKVX NSCLC.
Assay [3] deals with IGROV1 ovarian.
Assay [4] has as its system M14 melanoma.
Assay [5] deals with MDA-MB-435.
Assay [6] relates to MOLT-4 leukemia.
Assay [7] concerns OVCAR-3 ovarian.
For assay [8], the system named is RPMI-8226 leukemia.
For assay [9], the system named is SN12C renal.
In assay [10] the test system is SW-620 colon.

Molecules are shown by their SMILES.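 A five-concentration, 48-hour dose response in 96-well plates underlies each endpoint, interpolated linearly between surrounding concentrations. GI50 is the concentration that inhibits growth by half. TGI: concentration producing complete growth inhibition.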

Usually GI50 stands for the concentration that inhibits growth by half. One may read the TGI as the concentration giving total growth inhibition. Read a low TGI as greater sensitivity of the cells. Turning to `COC(=O)Nc1nc2ccc(Oc3ccc(NC(=O)Nc4cccc(Br)c4)cc3)cc2[nH]1`, the GI50 in assay [1] is 4.24 µM; in [2] it was 8.28 µM; in assay [3] it was 3.69 µM; in assay [4], 2.12 µM; in assay [5], 0.0839 µM; in assay [6], 4.03 µM. Further, the GI50 is 1.07 µM in assay [7], 8.24 µM in [8], 4.65 µM in [9] and 1.48 µM in [10]. In addition, the TGI in assay [1] is above 13.4 µM; in [2], above 25 µM; in assay [3], 11.8 µM; in assay [4], above 17.8 µM; in assay [5] it was 0.46 µM; in [6], above 15.4 µM. The total growth inhibition concentration (TGI) was 3.99 µM in [7], above 25 µM in assay [8], above 25 µM in assay [9] and 17.6 µM in assay [10].
For `Cc1cc(=O)c2cc(N=Cc3ccc([N+](=O)[O-])o3)ccc2o1`, the TGI in [1], in assay [2], in [3], in assay [4], in assay [5] and in [6] was above 100 µM each time. For the same molecule, the total growth inhibition concentration (TGI) in assay [7], in assay [8], in assay [9] and in [10] was above 100 µM throughout.
For `C=C(C)C(=O)OC1CC2(C)OC2CC(OC(C)=O)/C(C)=C/C2OC(=O)C(=C)C21` (stereo not given), the TGI amounted to 42.5 µM in assay [1]; 18.2 µM in [2]; 18.6 µM in assay [3]; 9.39 µM in assay [4]; 7.5 µM in assay [5]; 6.69 µM in assay [6]. The TGI in [7] was found to be 7.96 µM; in assay [8], 3.49 µM; in [9] it was 9.37 µM; in assay [10], 6.98 µM.
`COc1ccc(C2=CC(c3cc(OC)c(OC)c(OC)c3)NC(=O)N2)cc1OC` (stereo not given): the GI50 in assay [1] is 4.74 µM; in assay [2] it was 2.85 µM; in assay [3] it was 3.8 µM; in assay [4], 3.59 µM; in assay [5] it was 3.1 µM; in [6], 2.41 µM. Moreover, the GI50 in assay [7] was 2.13 µM; in assay [8], 3.03 µM; in [9], 2.42 µM; in assay [10], 2.96 µM. Besides, the TGI in [1] is above 100 µM; in [2], 23.2 µM; in [3] it was 20.4 µM; in [4], 11.5 µM; in [5], 16.9 µM; in assay [6], 12.5 µM. Besides, the concentration for total growth inhibition (TGI) in assay [7] is 5.05 µM; in assay [8], 19.3 µM; in assay [9], 8.33 µM; in assay [10], 10.2 µM.
On to `O=C(Nc1ccc(Cl)cc1)c1cc2c(cc1O)[nH]c1ccccc12`, for which the GI50 was 2.85 µM in assay [1]; 2.16 µM in assay [2]; 4.31 µM in assay [3]; 2.85 µM in [4]; 2.12 µM in assay [5]; 4.18 µM in [6]. Moreover, the GI50 in assay [7] was 3.72 µM; in [8], 2.71 µM; in [9], 2.93 µM; in assay [10], 3.4 µM. The TGI was 10.3 µM in [1]; 7.89 µM in assay [2]; 18.7 µM in assay [3]; 10.4 µM in assay [4]; 5.85 µM in assay [5]; 47.4 µM in assay [6]. The TGI was 12.2 µM in assay [7], 8.45 µM in assay [8], 11.3 µM in assay [9] and 13.4 µM in assay [10].
For the molecule `CC1=C(C(=O)Nc2ccc3[nH]ncc3c2)C(c2ccc(F)cc2)NC(=O)N1` (stereo not given), the GI50 in assay [1], in assay [2], in assay [3], in [4], in assay [5] and in assay [6] was above 25 µM throughout. For the same molecule, the GI50 in [7], in assay [8], in assay [9] and in [10] was above 25 µM in each case. Further, the TGI in assay [1], in [2], in assay [3], in assay [4], in [5] and in assay [6] was above 25 µM in each case. For the same molecule, the TGI in [7], in assay [8], in assay [9] and in [10] was above 25 µM throughout.
With `OCCCCC#Cc1ccccc1C#Cc1ccccc1F`, the GI50 in [1] is 15.7 µM; in assay [2], 29.4 µM; in assay [3], 15 µM; in assay [4] it was 14.6 µM; in assay [5], 18.9 µM; in assay [6], 21.2 µM. Further, the GI50 was 19.7 µM in [7], 30.7 µM in assay [8], 18.1 µM in assay [9] and 22.2 µM in assay [10]. Moreover, the TGI was 34.5 µM in assay [1]; 94.4 µM in assay [2]; 33.1 µM in assay [3]; 29.6 µM in assay [4]; 37.2 µM in assay [5]; 49.8 µM in assay [6]. Further, the TGI in [7] was determined as 43.6 µM; in assay [8] it was 70 µM; in assay [9], 40.4 µM; in [10], 44.4 µM.
For `CC/C=C\C/C=C\C[C@H](O)C/C=C1/C(=O)C=C[C@H]1C/C=C\CCC(=O)OC`, the GI50 is above 8.25 µM in assay [1]; above 8.25 µM in [2]; above 8.25 µM in assay [3]; 6.11 µM in assay [4]; 2.35 µM in assay [5]; 2.93 µM in [6]. Besides, the GI50 is 2.08 µM in assay [7], 1.59 µM in [8], 2.62 µM in assay [9] and 2.19 µM in assay [10]. The TGI in assay [1], in assay [2], in [3], in assay [4], in [5] and in assay [6] was above 8.25 µM throughout. The TGI in assay [7] is 7.71 µM; in assay [8], 5.01 µM; in assay [9] it was above 8.25 µM; in [10], above 8.25 µM.
